From PubChem BioAssay AID652289 (Broad Institute, 2013)
Where “and” joins values, the source holds several entries; their conditions need not be identical. Identical values can stand only once. Calls of active or inactive are those of the source. No rule for the calls is given here.

system: not listed separately; experiment: quorum luxo light induction, V. cholerae bh1651 luxod47e, confirmatory dose response (AID 652289); settings: V. cholerae BH1651 luxOD47E, luciferase light induction, 6 h; at 35 µM (top of the series)

SMILES	light induction
O=C(CC1CCCCC1)Nc1nnc(-c2ccc3c(c2)CCCC3)o1	0.061% (inactive)

same assay, conditions: V. cholerae BH1651 luxOD47E, luciferase light induction, 6 h; at 50 µM (top of the series)

SMILES	light induction
CCCCCCCCCC(=O)C(O)CC (stereo unspecified)	0.038% (inactive)

same assay, conditions: V. cholerae BH1651 luxOD47E, luciferase light induction, 6 h; at 80 µM (top of the series)

SMILES	light induction
O=C(CC1CCCCC1)Nc1nnc(-c2cccnc2)o1	-0.016% (inactive)
O=C(Nc1nnc(-c2ccc3c(c2)CCCC3)o1)C1CCC1	-0.005% (inactive)
CCC(C)(C)C(=O)Nc1nnc(-c2ccc3c(c2)OCCO3)o1	-0.006% (inactive)
O=C(Nc1nnc(-c2ccc(Cl)cc2)o1)C1CCCCC1	-0.026% (inactive)
Cc1ccc2cc3c(NC(=O)c4ccoc4)nn(C)c3nc2c1	2.86% (inactive)
O=C(Nc1nnc(-c2cccc(Cl)c2)o1)C1CCCCC1	0.065% (inactive)

same assay, conditions: V. cholerae BH1651 luxOD47E, luciferase light induction, 6 h; at 100 µM (top of the series)

SMILES	light induction
Cc1ccc2cc3c(NC(=O)c4cc5ccccc5o4)nn(C)c3nc2c1	-0.007% (inactive)
CN1CCC(C(=O)Nc2nnc(-c3ccc4c(c3)OCCO4)o2)CC1	0.052% (inactive)
CCCCCCCCCC(=O)[C@H](O)CC (racemic)	0.014% (inactive)
COc1ccc(-c2nnc(NC(C)=O)o2)cc1	0.045% (inactive)
O=C(Nc1nnc(-c2ccccc2Cl)o1)C1CCCCC1	-0.01% (inactive)
C(=N\c1nnc(-c2ccc3c(c2)OCCO3)o1)/c1ccccc1	0.005% (inactive)
CC(C)c1ccc2cc3c(NC(=O)c4ccco4)nn(C)c3nc2c1	0.507% (inactive)
Cn1ccc(NC(=O)c2ccco2)n1	0.053% (inactive)
O=C(Nc1nnc(C2CCCC2)o1)C1CCCCC1	-0.015% (inactive)
COc1ccc(S(=O)(=O)Nc2nnc(-c3ccc4c(c3)OCCO4)o2)cc1	0.005% (inactive)
Cc1ccc2cc3c(NC(=O)c4ccc(C)o4)nn(C)c3nc2c1	-0.015% (inactive)
COc1cccc(-c2nnc(NC(=O)C3CCCCC3)o2)c1	-0.005% (inactive)
CN(C)/C=N/c1nnc(-c2ccc3c(c2)OCCO3)o1	0.039% (inactive)
Cc1ccc2cc3c(NC(=O)c4ccccn4)nn(C)c3nc2c1	0.001% (inactive)
O=C(Nc1nnc(-c2ccc3c(c2)OCCO3)o1)C(F)(F)c1ccccc1	-0.004% (inactive)
c1ccc(CNc2nnc(-c3ccc4c(c3)OCCO4)o2)cc1	-0.004% (inactive)
O=C(Nc1nnc(-c2cccnc2)o1)C1CCC1	0.001% (inactive)
O=C(Nc1nnc(-c2ccc3c(c2)OCCO3)o1)C1CC1	0.004% (inactive)
O=S(=O)(Nc1nnc(-c2ccc3c(c2)OCCO3)o1)c1ccc(Cl)cc1	-0.005% (inactive)
CCn1nnnc1NCc1ccc(C(C)C)cc1	-0.004% (inactive)
Cc1ccc2cc3c(NC(=O)Cc4ccco4)nn(C)c3nc2c1	1.12% (inactive)
CC(C)(C)OC(=O)N1CCC(C(=O)Nc2nnc(-c3ccc4c(c3)OCCO4)o2)CC1	0.028% (inactive)
O=C(Nc1nnc(-c2ccc3c(c2)OCCO3)o1)C1CCC1	0.013% (inactive)
Cn1nc(NC(=O)c2ccco2)c2cc3ccc(C(C)(C)C)cc3nc21	0% (inactive)
O=C(Nc1nnc(-c2ccncc2)o1)C1CCC1	0.055% (inactive)
O=C(Cc1ccc(-c2ccccc2)cc1)NC1CCC1	-0.023% (inactive)

system: V. cholerae BH1651 luxOD47E, luciferase light induction, 6 h; experiment: as above; settings: not given

SMILES	AC40
COc1ccccc1-c1nnc(NC(=O)C2CCCCC2)o1	> 100 µM (inactive)
O=C(Nc1nnc(-c2ccc3c(c2)OCCO3)o1)C1CCCCCC1	6.99 µM
Cn1nc(NC(=O)c2ccco2)c2cc3ccccc3nc21	3.58 µM
Cc1cc(F)cc2nc3c(cc12)c(NC(=O)c1ccco1)nn3C	41.3 µM
Cc1ccc2cc3c(NC(=O)c4ccco4)nn(C)c3nc2c1	5.26 µM and 15.3 µM
O=C(Nc1nnc(-c2ccc3c(c2)OCCO3)o1)C1CCCCC1	5.31 µM and 2.57 µM
Cc1ccc2cc3c(NC(=O)c4cccs4)nn(C)c3nc2c1	70.8 µM
Cc1ccc2cc3c(NC(=O)C4CCCC4)nn(C)c3nc2c1	40.6 µM
Cc1cc2cc3c(NC(=O)c4ccco4)nn(C)c3nc2cc1C	63.3 µM
Cc1cc2nc3c(cc2cc1F)c(NC(=O)c1ccco1)nn3C	68.7 µM
Cn1nc(NC(=O)c2ccco2)c2ccccc21	89.4 µM
COc1ccc(-c2nnc(NC(=O)C3CCCCC3)o2)cc1	> 100 µM (inactive)
Cc1cc(F)c2cc3c(NC(=O)c4ccco4)nn(C)c3nc2c1	33.5 µM
COc1ccc2cc3c(NC(=O)c4ccco4)nn(C)c3nc2c1	2.73 µM
Cn1nc(NC(=O)c2ccco2)c2cccnc21	58.4 µM
O=C(Nc1nnc(-c2cccnc2)o1)C1CCCCC1	61.3 µM
CCc1ccc2cc3c(NC(=O)c4ccco4)nn(C)c3nc2c1	32.9 µM
